Data taken from PMC4010497, “Synthesis and Evaluation of Fluorine-Substituted Phenyl Acetate Derivatives as Ultra-Short Recovery Sedative/Hypnotic Agents” (PLoS ONE, 2014).

Columns and labels:
GABAA receptor = experiment: GABAA radioligand binding assay ([3H]EBOB); settings: 50 µM compound, 0.5 nM [3H]EBOB, rat frontoparietal cortex
Protocol: All the new compounds were dissolved in 5% DMSO.
Specific binding was determined in the presence of compounds.
Membrane suspensions were thawed and centrifuged in incubation buffer at 10,000×g for 10 min and washed by a similar centrifugation. For displacement studies, membrane suspensions (5 mg original wet wt./ml) were incubated with 0.5 nM [^3H]EBOB ([…], Perkin Elmer Life Sciences, Boston, MA, USA) in the absence or presence of 50 µM of new compounds or reference drug for 2 h at 25°C. Nonspecific binding was determined in the presence of 10 µM Bicuculline. Bicuculline and picrotoxin were frequently used to determine the nonspecific binding when [3H]EBOB as radioligand [17]. Triplicate 1 ml samples were filtered on Whatman GF/B filters under vacuum with a Brandel Harvester and washed with 3×3 ml ice-cold buffer.

mice [1] = experiment: animal or person; type: in vivo; settings: mice; for ED50: Mus musculus, IV over 10 s, 95% confidence limits, read-out: HD50 (the source's name); for Duration of LORR: IV 2× HD50, mean ± SD (n = 10); for Onset time: IV, mean ± SD (n = 10)
Protocol: All tests were performed during the light period. Groups of mice, rats and rabbits were injected intravenously (lateral tail vein) over 10 s with each dose of test compound, placed in separate boxes to reduce external stimuli and assessed for the loss of righting reflex. Dosing was performed using mg/kg scheme. A set of dose levels was chosen, and depending on whether the loss of righting reflex was observed, extra doses were introduced to provide data for the loss of righting reflex over a narrow dose range to allow potency calculations. From the percentage of mice, rats and rabbits in each group showing loss of righting reflex for ≥30 s, a probit analysis (SAS Institute) was performed to obtain an HD50 for each compound with 95% confidence limits.
Immediately following the injection, the mice, rats and rabbits were tested for loss of righting reflex. […] Once a loss was observed, the interval between the loss of righting reflex and the return to righting reflex was recorded. The anesthetized animals recovered righting reflexes spontaneously. To compare the duration of LORR of each compound at equipotent doses, groups of mice, rats and rabbits were injected with each compound at 2× HD50 over 10 s.
Time to walk was the time required after righting before mice and rabbits walked from the center to the periphery of a 30-cm diameter dise.
The rotarod test was conducted to evaluate the recovery to the motor coordination. Before the LORR test, mice were trained for 2 consecutive days. Trained mice could maintain their balance on rod for more than 2 mins. After the mice could walk from the center to the periphery of a 30-cm diameter dise, they were put on the rotarod. Mice were classified as behavioral recovery when, on being placed on the rod, they could maintain their balance for 20 s. The time to behavioral recovery was the time required after mice walked from the centre to the periphery of a 30-cm diameter disc before they could maintain their balance on rod for 20 s.

[2] = Octanol:water partition coefficient; type: physicochemical; settings: water buffered with 10 mm Tris (pH 7.4)
Protocol: One mg of each hypnotic was added to 10 ml of water buffered with 10 mm Tris (pH 7.4) and 1 ml of octanol. The mixture was stirred overnight and then centrifuged to fully separate the organic and aqueous phases. The relative hypnotic concentration in each phase (i.e., the partition coefficient) was determined by high-performance liquid chromatography as described for blood.

in vivo = settings: mouse, in vivo, mice, 95% confidence limits
Protocol: (§1) The LD50 was determined in mice, rats, and rabbits and the TI was calculated as LD50/HD50.

mice [3] = experiment: in vivo; settings: LD50/HD50
Protocol: as §1

Structure (SMILES)	GABAA binding (50 µmol) (Mean ± SD), percentage of inhibition (GABAA receptor)	ED50 (mice [1])	Duration of LORR (mice [1])	Onset time (mice [1])	Octanol:Water Partition (Coefficient ± SD) [2]	LD50 (in vivo)	TI (mice [3])	LD50 (in vivo; intravenous)	anesthetic potency (in words) (mice [1])	Time to walk (mice [1]; 2× HD50)	time to behavioral recovery (mice [1]; 2× HD50, rotarod)
CCOC(=O)Cc1ccc(OCC(=O)N(CC)CC)c(OC(F)(F)F)c1 [Compound 5a, Ethyl 2-(4-(2-(diethylamino)-2-oxoethoxy)-3-(trifluoromethoxy)phenyl)acetate]	69.1±4.2%	72.5 mg/kg	155.2 ± 10.3 s	35.1 ± 6.8 s	2157±185	442 mg/kg	6.1	–	–	–	–
CCCOC(=O)Cc1ccc(OCC(=O)N(CC)CC)c(OC(F)(F)F)c1 [Compound 5b, propyl 2-(4-(2-(diethylamino)-2-oxoethoxy)-3-(trifluoromethoxy)phenyl)acetate]	73.9±5.3%	58.7 mg/kg	162.6 ± 15.7 s	32.4 ± 5.6 s	4745±280	–	5.9	346 mg/kg	–	–	–
CCN(CC)C(=O)COc1ccc(CC(=O)OCC(F)(F)F)cc1OC(F)(F)F [Compound 5c, 2,2,2-trifluoroethyl 2-(4-(2-(diethylamino)-2-oxoethoxy)-3-(trifluoromethoxy)phenyl)acetate]	30.4±3.5%	–	–	–	3427±130	–	–	–	poor anesthetic potency	–	–
CCOC(=O)Cc1ccc(OCC(=O)N(CC)CC)c(OCC(F)(F)F)c1 [Compound 5d, ethyl 2-(4-(2-(diethylamino)-2-oxoethoxy)-3-(2,2,2-trifluoroethoxy)phenyl)acetate]	67.7±3.2%	47.4 mg/kg	181.9 ± 14.3 s	25.2 ± 3.8 s	778±77	260 mg/kg	5.5	–	–	–	–
CCCOC(=O)Cc1ccc(OCC(=O)N(CC)CC)c(OCC(F)(F)F)c1 [Compound 5e, propyl 2-(4-(2-(diethylamino)-2-oxoethoxy)-3-(2,2,2-trifluoroethoxy)phenyl)acetate]	72.2±6.5%	43.8 mg/kg	224.6 ± 19.5 s	23.4 ± 4.6 s	872±65	250 mg/kg	5.7	–	–	–	–
CCN(CC)C(=O)COc1ccc(CC(=O)OCC(F)(F)F)cc1OCC(F)(F)F [Compound 5f, 2,2,2-trifluoroethyl 2-(4-(2-(diethylamino)-2-oxoethoxy)-3-(2,2,2-trifluoroethoxy)phenyl)acetate]	45.4±4.3%	–	–	–	1452±156	–	–	–	poor anesthetic potency	–	–
CCN(CC)C(=O)COc1ccc(CC(=O)OCC(F)(F)F)cc1OC [Compound 5g, 2,2,2-trifluoroethyl 2-(4-(2-(diethylamino)-2-oxoethoxy)-3-methoxyphenyl)acetate]	87.2±5.7%	59.6 mg/kg	44.8 ± 2.1 s	6.2 ± 0.4 s	597±68	363 mg/kg	6.1	–	–	22.5 ± 6.9 s	46.5 ± 8.5 s
CCN(CC)C(=O)COc1ccc(CC(=O)OCCC(F)(F)F)cc1OC [Compound 5h, 3,3,3-trifluoropropyl 2-(4-(2-(diethylamino)-2-oxoethoxy)-3-methoxyphenyl)acetate]	80.3±7.6%	25.6 mg/kg	69.3 ± 7.8 s	7.5 ± 1.2 s	792±36	–	–	–	–	–	–
CCN(CC)C(=O)COc1ccc(CC(=O)OC(C)C(F)(F)F)cc1OC (stereo not shown) [Compound 5i, 1,1,1-trifluoropropan-2-yl 2-(4-(2-(diethylamino)-2-oxoethoxy)-3-methoxyphenyl)acetate]	81.6±10.5%	21.1 mg/kg	80.1 ± 9.3 s	7.2 ± 0.5 s	1857±124	112 mg/kg	5.5	–	–	–	–
CCOc1cc(CC(=O)OCCC(F)(F)F)ccc1OCC(=O)N(CC)CC [Compound 5k, 3,3,3-trifluoropropyl 2-(4-(2-(diethylamino)-2-oxoethoxy)-3-ethoxyphenyl)acetate]	74.0±6.3%	29.2 mg/kg	65.6 ± 6.8 s	7.6 ± 0.9 s	667±102	–	–	–	–	–	–
CCOc1cc(CC(=O)OC(C)C(F)(F)F)ccc1OCC(=O)N(CC)CC (stereo not shown) [Compound 5l, 1,1,1-trifluoropropan-2-yl 2-(4-(2-(diethylamino)-2-oxoethoxy)-3-ethoxyphenyl)acetate]	79.5±10.0%	20.7 mg/kg	121.2 ± 11.5 s	7.3 ± 1.1 s	2857±400	103 mg/kg	5.1	–	–	–	–
